According to ChEMBL document CHEMBL1139752, “New rifabutin analogs: synthesis and biological activity against Mycobacterium tuberculosis” (2006):
≈ marks a conversion by molar mass, not a printed value.

Experiments:
Assay type in all cases: functional
[1] = tested on: Mycobacterium tuberculosis; assay: Antimycobacterial activity against rifampicin and rifabutin resistant Mycobacterium tuberculosis ATCC 35838
[2] = tested on: Mycobacterium tuberculosis; assay: Antimycobacterial activity against streptomycin resistant Mycobacterium tuberculosis ATCC 35820
[3] = tested on: Mycobacterium tuberculosis; assay: Antimycobacterial activity against ethambutol resistant Mycobacterium tuberculosis ATCC 35837
[4] = tested on: Mycobacterium tuberculosis; assay: Antimycobacterial activity against isoniazid resistant Mycobacterium tuberculosis ATCC 35822
[5] = tested on: Mycobacterium tuberculosis; assay: Antimycobacterial activity against rifampicin and rifabutin resistant Mycobacterium tuberculosis

Structure (SMILES): CO[C@H]1/C=C/O[C@@]2(C)Oc3c(C)c(O)c4c(O)c(c(/C=N/N5CCN(C)CC5)c(O)c4c3C2=O)NC(=O)/C(C)=C\C=C\[C@H](C)[C@H](O)[C@@H](C)[C@@H](O)[C@@H](C)[C@H](OC(C)=O)[C@@H]1C [RIFAMPIN]
- MIC [1]: > 5 µg/mL
- MIC [2]: 0.02 µg/mL (≈ 0.0243 µM)
- MIC [3]: 0.02 µg/mL (≈ 0.0243 µM)
- MIC [4]: 0.02 µg/mL (≈ 0.0243 µM)
- MIC [5]: > 5 µg/mL

Structure (SMILES): COc1ccc([C@@H]2C[C@]3(C[C@H](c4ccc(OC)cc4)N2)N=C2C(=C4NC(=O)/C(C)=C\C=C\[C@H](C)[C@H](O)[C@@H](C)[C@H](O)[C@H](C)[C@H](OC(C)=O)[C@H](C)[C@@H](OC)/C=C/O[C@@]5(C)Oc6c(C)c(O)c(c2c6C5=O)C4=O)N3)cc1
- MIC [1]: 1 µg/mL (≈ 0.997 µM)
- MIC [2]: 0.02 µg/mL (≈ 0.0199 µM)
- MIC [3]: 0.02 µg/mL (≈ 0.0199 µM)
- MIC [4]: 0.02 µg/mL (≈ 0.0199 µM)
- MIC [5]: > 1 µg/mL

Structure (SMILES): CO[C@H]1/C=C/O[C@@]2(C)Oc3c(C)c(O)c4c(c3C2=O)C2=N[C@@]3(C[C@@H](c5ccc(F)cc5)N[C@@H](c5ccc(F)cc5)C3)NC2=C(NC(=O)/C(C)=C\C=C\[C@H](C)[C@H](O)[C@@H](C)[C@H](O)[C@H](C)[C@H](OC(C)=O)[C@@H]1C)C4=O
- MIC [1]: 0.5 µg/mL (≈ 0.511 µM)
- MIC [2]: 0.02 µg/mL (≈ 0.0204 µM)
- MIC [3]: 0.02 µg/mL (≈ 0.0204 µM)
- MIC [4]: 0.02 µg/mL (≈ 0.0204 µM)
- MIC [5]: 0.3 µg/mL (≈ 0.306 µM)

Structure (SMILES): CCCCN1[C@@H](c2ccccc2)C[C@@]2(C[C@H]1c1ccccc1)N=C1C(=C3NC(=O)/C(C)=C\C=C\[C@H](C)[C@H](O)[C@@H](C)[C@H](O)[C@H](C)[C@H](OC(C)=O)[C@H](C)[C@@H](OC)/C=C/O[C@@]4(C)Oc5c(C)c(O)c(c1c5C4=O)C3=O)N2
- MIC [1]: 1 µg/mL (≈ 1 µM)
- MIC [2]: 0.02 µg/mL (≈ 0.02 µM)
- MIC [3]: 0.02 µg/mL (≈ 0.02 µM)
- MIC [4]: 0.02 µg/mL (≈ 0.02 µM)
- MIC [5]: > 1 µg/mL

Structure (SMILES): CO[C@H]1/C=C/O[C@@]2(C)Oc3c(C)c(O)c4c(c3C2=O)C2=NC3(CCN(CC(C)C)CC3)NC2=C(NC(=O)/C(C)=C\C=C\[C@H](C)[C@H](O)[C@@H](C)[C@@H](O)[C@@H](C)[C@H](OC(C)=O)[C@@H]1C)C4=O [RIFABUTIN]
- MIC [1]: > 5 µg/mL
- MIC [2]: 0.02 µg/mL (≈ 0.0236 µM)
- MIC [3]: 0.02 µg/mL (≈ 0.0236 µM)
- MIC [4]: 0.02 µg/mL (≈ 0.0236 µM)
- MIC [5]: > 5 µg/mL

Structure (SMILES): CO[C@H]1/C=C/O[C@@]2(C)Oc3c(C)c(O)c4c(c3C2=O)C2=N[C@]3(C[C@@H](c5ccccc5)N[C@@H](c5ccccc5)C3)NC2=C(NC(=O)/C(C)=C\C=C\[C@H](C)[C@H](O)[C@@H](C)[C@H](O)[C@H](C)[C@H](OC(C)=O)[C@@H]1C)C4=O
- MIC [1]: 1 µg/mL (≈ 1.06 µM)
- MIC [2]: 0.02 µg/mL (≈ 0.0212 µM)
- MIC [3]: 0.02 µg/mL (≈ 0.0212 µM)
- MIC [4]: 0.02 µg/mL (≈ 0.0212 µM)
- MIC [5]: > 1 µg/mL

Structure (SMILES): C=CCN1[C@@H](c2ccccc2)C[C@@]2(C[C@H]1c1ccccc1)N=C1C(=C3NC(=O)/C(C)=C\C=C\[C@H](C)[C@H](O)[C@@H](C)[C@H](O)[C@H](C)[C@H](OC(C)=O)[C@H](C)[C@@H](OC)/C=C/O[C@@]4(C)Oc5c(C)c(O)c(c1c5C4=O)C3=O)N2
- MIC [1]: > 1 µg/mL
- MIC [2]: 0.02 µg/mL (≈ 0.0203 µM)
- MIC [3]: 0.02 µg/mL (≈ 0.0203 µM)
- MIC [4]: 0.02 µg/mL (≈ 0.0203 µM)
- MIC [5]: > 1 µg/mL

Structure (SMILES): CO[C@H]1/C=C/O[C@@]2(C)Oc3c(C)c(O)c4c(c3C2=O)C2=N[C@@]3(C[C@@H](c5ccccc5)N[C@@H](c5ccccc5)C3)NC2=C(NC(=O)/C(C)=C\C=C\[C@H](C)[C@H](O)[C@@H](C)[C@H](O)[C@H](C)[C@H](OC(C)=O)[C@@H]1C)C4=O
- MIC [1]: 0.5 µg/mL (≈ 0.53 µM)
- MIC [2]: 0.02 µg/mL (≈ 0.0212 µM)
- MIC [3]: 0.02 µg/mL (≈ 0.0212 µM)
- MIC [4]: 0.02 µg/mL (≈ 0.0212 µM)
- MIC [5]: 0.3 µg/mL (≈ 0.318 µM)

Structure (SMILES): C=CCCN1[C@@H](c2ccccc2)C[C@@]2(C[C@H]1c1ccccc1)N=C1C(=C3NC(=O)/C(C)=C\C=C\[C@H](C)[C@H](O)[C@@H](C)[C@H](O)[C@H](C)[C@H](OC(C)=O)[C@H](C)[C@@H](OC)/C=C/O[C@@]4(C)Oc5c(C)c(O)c(c1c5C4=O)C3=O)N2
- MIC [1]: > 1 µg/mL
- MIC [2]: 0.02 µg/mL (≈ 0.0201 µM)
- MIC [3]: 0.02 µg/mL (≈ 0.0201 µM)
- MIC [4]: 0.02 µg/mL (≈ 0.0201 µM)
- MIC [5]: > 1 µg/mL
